According to US12357695B2, “Peptides and nanoparticles for intracellular delivery of molecules” (AADIGEN, LLC, priority 2019, dated 2025):
Square brackets hold non-standard residues; d marks the D form. Ends that are not written are not given here. Stearyl = stearyl group covalently linked to the N-terminus; βAla = NCCC(=O)O

Tests used:
293T cells = assay: Cellular delivery of Luciferase mRNA, luciferase expression at 72 hrs; assay type: cell-based; settings: 0.25 μg Luc mRNA; for luciferase expression: absence of serum or heparan sulfate treatment; for reduction of efficiency / luciferase expression after serum treatment: complexes incubated 3 hrs in 25% serum prior transfection; for reduction of efficiency / luciferase expression after heparan sulfate treatment: complexes incubated 3 hrs with heparan sulfate prior transfection
Method: FIGS. 1A-1C show luciferase expression in 293T cells treated with ADGN-peptide/mRNA complexes. 293T cells cultured in 48 well plates were transfected with ADGN-peptide nanoparticles. ADGN-100, ADGN-106, ADGN-100RI, ADGN-106RI, ADGN-100 Stearyl, ADGN-Hydro1, ADGN-Hydro2, ADGN-Hydro3, ADGN-Hydro4, ADGN-Hydro5, ADGN-Hydro6 and ADGN-peptide/ADGN-100PEG 10% nanoparticles containing 0.25 μg mRNA were formed in sterile water, diluted in sterile water containing 5% Sucrose and filtered with 0.45 μm PES filters. ADGN/mRNA complexes were incubated for 3 hrs in the presence of either 25% serum or heparan sulfate prior transfection. Luciferase expression was monitored 72 hours post transfection and results were reported as RLU (luminescence):mg of protein.
(§1) Complex formation with mRNA. The following protocols were used for the transfection of 2-5 106 Cells or Cells at confluency of about 70-80% cultured in 24 well plates. ADGN peptide/mRNA particles were prepared at a 20:1 molar ratio of ADGN-Peptide/mRNA. using (0.25 μg) mRNA. Luc mRNA (0.25 μg) was diluted in 20 μl of sterile water (GIBCO) at room temperature. 5 μl Final Peptide Solution was added to obtain a total volume of 20 μl. The volume was adjusted to 50 μl with sterile water and was mixed gently with vortex 1 min low speed and incubated 30 min at room temperature. Then the volume was made up to 100 μl by adding sterile water containing 5% sucrose, and the solution was mixed gently with vortex 1 min low speed and incubate 5 min at 37° C. and then was proceeded to cell transfection.
Transfection protocol. Protocol is reported for 24 well plate format. Cells were cultured in Dulbecco's Modified Eagle's Medium (DMEM), supplemented with 2 mM glutamine, 1% antibiotics (streptomycin 10,000 μg/mL, penicillin, 10,000 IU/mL) and 10% (w/v) foetal calf serum (FCS), at 37° C. in a humidified atmosphere containing 5% CO2. 24 well plates seeded with 150,000 cells the day prior to transfection were grown to 50-60% confluence and set up to be at about 70% confluences at the time of transfection. Before transfection, cells were washed twice with DMEM. Cells were then overlaid with 0.1 ml of ADGN-peptide/cargo complex solution containing 0.25 μg mRNA, 0.15 μg plasmid DNA or 10-25 nM siRNA, mixed gently, and incubated for 10 min at 37° C. 0.2 mL of fresh DMEM, were added and cells were incubated for 20 min at 37° C. 1 mL of complete DMEM containing 15% FCS were then added in order to reach a final FCS concentration of 10%, without removing the overlay of ADGN-peptide/cargo complexes. Cells were returned to the incubator (37° C., 5% CO2) and 72 hrs post transfection.
ADGN-peptides were evaluated for cellular delivery of Luciferase mRNA in 293T cells. A single dose of mRNA of 0.25 μg was evaluated. Luc mRNA (0.25 μg) in sterile water (GIBCO) were mixed with ADGN-100, ADGN-100RI, ADGN-106, ADGN-106RI, ADGN-100 Stearyl, ADGN-Hydro1, ADGN-Hydro2, ADGN-Hydro5 and ADGN-Hydro6. ADGN-peptide/mRNA complexes were filtered with 0.45 μm PES filter. In order to evaluate the stability of the ADGN/mRNA complexes in high serum and cell culture conditions, the complexes were incubated for 3 hrs in the presence of either 25% serum or heparan sulfate prior transfection, then 293T cells were transfected and Luciferase expression was monitored at 72 hrs.
ADGN-106 peptides containing YIGSR targeting sequence were evaluated for cellular delivery of Luciferase mRNA in 293T cells. A single dose of mRNA of 0.25 μg was evaluated. Luc mRNA (0.25 μg) in sterile water (GIBCO) were mixed with ADGN-106 and ADGN-106Hydro variant. ADGN-peptide/mRNA complexes were filtered with 0.45 μm PES filter. The ADGN-106/mRNA complexes were incubated for 3 hrs in the presence of 25% serum prior transfection, then 293T cells were transfected and Luciferase expression was monitored at 72 hrs.

[1] = DLS particle size and level of aggregation of ADGN-peptide/mRNA complexes; assay type: physicochemical; settings: retro inverso modification vs parent peptide
Method: as §1
The ability of the different ADGN-peptides to form stable nanoparticles with mRNA was analyzed. The particle sizes and level of aggregation were measured on DLS NanoZS (Malvern Ltd). The mean size and the polydispersity of the ADGN/mRNA complexes were determined at 25° C. for 3 minute per measurement. In order to remove large particles, ADGN/mRNA complexed were filtered using either PES or PVDF 0.45 μm filters. Data are shown in FIG. 8 and FIG. 9 for a mean of 3 separate experiments.

[2] = absence of serum or heparan sulfate

Row | Substance | luciferase expression (293T cells) | reduction of efficiency / luciferase expression after serum treatment (293T cells) [%] | reduction of efficiency / luciferase expression after heparan sulfate treatment (293T cells) [%] | reduction of efficiency / luciferase expression by modification or linker vs unmodified ADGN peptide (293T cells; [2]) | ability of the peptide to form stable complex with mRNA [1] | potency relative to ADGN-100 (293T cells; [2]) [fold]
1 | βAKWRSAGWRWRLW RVRSWSR (AKWRSAGWRWRLWRVRSWSR; N-terminal beta-alanine; VARIANT 1 beta-A) [ADGN-100] | high level of luciferase expression | 90 | 50 | – | – | –
2 | rswsrvrwlrwrwgasrwk ([dR][dS][dW][dS][dR][dV][dR][dW][dL][dR][dW][dR][dW]G[dA][dS][dR][dW][dK]; also: retro-inverso) [ADGN-100-RI] | – | 40 | 16 | did not modify | did not modify the ability of the peptide to form stable complex with mRNA | –
3 | akwllrwlsrwlrwlarwlr ([dA][dK][dW][dL][dL][dR][dW][dL][dS][dR][dW][dL][dR][dW][dL][dA][dR][dW][dL][dR]; also: retro-inverso) [ADGN-106-RI] | – | 26 | 13 | did not modify | did not modify the ability of the peptide to form stable complex with mRNA | –
4 | βALWRALWRLWRSLWRLLWKA ([βAla]LWRALWRLWRSLWRLLWKA) [ADGN-106] | high level of luciferase expression | – | 50 | – | – | 2
5 | Stearyl-βA-KWRSALWRWRLWRVRSWSR-NH2 (Stearyl-[βAla]KWRSALWRWRLWRVRSWSR-NH2; not fully specified; printed as Stearyl-βA-KWRSALWRWRLWRVRSWSR-NH2) [ADGN-100 Stearyl] | – | – | – | not significantly affected | – | –
